“And” between values parts separate entries of the source, which are not always exact repeats. Identical values can stand only once. Like-named read-outs stand apart in the source and are kept apart here.
Assays:
[1] = Thymol stability in feed (HPLC); assay type: physicochemical; settings: enteric SES pellets in feed
Procedure: Thymol evaporation in feed was analysed every week during thymol application using high-performance liquid chromatography (HPLC) according to the modified method of Oceľová [10] and Pisarčíková et al.. Samples were analysed in triplicate. Briefly, 2 mL of methanol was added to a glass tube containing 0.2 g of milled feed, and thymol was extracted in an ultrasonic bath. The methanolic extract was then analysed using the HPLC method with an Ultimate 3000 HPLC-system liquid chromatograph (Dionex, Sunnyvale, CA, USA). The chromatographic analyses were evaluated using Chromeleon® Software Version 6.80 SR10 Build 2906 (Thermo Fisher Scientific, Waltham, MA, USA).

[2] = Growth performance of broiler rabbits fed thymol pellets; assay type: in vivo; settings: for live weight / average weight gain per rabbit / conversion ratio: EG
Procedure: The experiment lasted 28 days.
Body weight (BW) and feed intake (FI) were recorded individually once a week. The average daily FI, average daily weight gain (WG) and feed conversion ratio (FCR) were calculated at the end of the period (at 56 d of age and 63 d of age).

[3] = Thymol in plasma, tissues, large intestinal content and faeces (SPME GC/MS)
Procedure: A total of 48 rabbits of both sexes (an equal male-to-female ratio per treatment) at five weeks of age were randomly divided into two dietary treatment groups (24 rabbits in each); a control group (CG) fed a standard diet to which enteric pellets without thymol were added and an experimental group (EG) fed a standard diet into which enteric pellets with thymol (250 mg/kg) were incorporated. Plasma and tissue samples from the control group were used as blank samples to construct calibration curves. The rabbits of meat line M91, maternal albinotic line (cross breed New Zealand White, Bouscat rabbit, Argente Champagnet rabbit) and paternal acromalictic line (crossbreed Nitra’s rabbit, Californian rabbit, Big light silver) were used in this experiment. The animals were fed ad libitum and had free access to drinking water. All the experimental wire-net cages (61 cm × 34 cm × 33 cm) were kept in rooms with automatic temperature and humidity control through a digital thermograph (22 ± 4 °C, 70 ± 5%). A lighting regimen of 16 h light and 8 h dark was applied throughout the experiment. The experiment lasted 28 days. The EG rabbits received feed with thymol pellets for 21 days (56 d of age) and for the next 7 days (63 d of age) received pellets without thymol incorporated into feed.
To determine the thymol content in plasma, blood (1.5 mL) from nine rabbits was collected from the marginal ear vein (vena auricularis) into heparinised Eppendorf tubes, and plasma was obtained after centrifugation at 1180× g for 15 min. The gastrointestinal tract was removed from the body cavity and was divided into the small intestine (duodenum and jejunum), caecum and colon (n = 9). Caecum and colon contents were removed, and the small intestinal lumen was gently washed with a 0.9% NaCl solution. The obtained samples of duodenal wall (DW), jejunal wall (JW) and gut content together with plasma, liver, kidney, muscle (longissimus thoracis et lumborum, LTL) and spleen tissue, fat, and faeces were immediately frozen in liquid nitrogen and stored at −70 °C until analysed. All samples were collected on both experimental days (56 or 63 d of age).
Thymol was determined using solid-phase microextraction (SPME) coupled with gas chromatography/mass spectrometry (GC/MS). The analytical system comprised an Agilent 7890A gas chromatograph (Agilent Technologies, Wilmington, DE, USA) interfaced with an Agilent 5975C Mass Selective Detector (VL MSD with Triple-Axis Detector), Agilent Technologies, Wilmington, DE, USA). Chromatographic separation was achieved on an HP-5MS capillary column (Agilent 19091S-433) with dimensions of 30 m in length, 0.250 mm inner diameter and 0.25 μm film thickness. Helium served as the carrier gas under strictly controlled flow (an initial flow rate of 2.77 mL/min and a post-run flow of 1.3 mL/min) and inlet pressure (approximately 23.27 psi). Sample preparation was carried out using solid-phase microextraction (SPME), a solvent-free and efficient extraction technique that utilises the adsorption of analytes onto a polymer-coated fibre. For this purpose, a 65 μm polydimethylsiloxane/divinylbenzene (PDMS/DVB) StableFlex fibre assembly (23Ga, Supelco 57293-U, Sigma-Aldrich, St. Louis, MO, USA) was employed in combination with a PAL autosampler (CTC Analytics, Zwingen, Switzerland). Due to fibre wear, the SPME fibre was replaced after every 40 to 60 samples to ensure consistent extraction performance.
For determination of the total content of thymol plasma and homogenized tissue samples were enzymatically hydrolysed with β-glucuronidase from Helix pomatia (Sigma-Aldrich, St. Louis, MO, USA) at 37 °C and pH 5 for 30 min to cleave thymol conjugates. Following hydrolysis, samples were salted out with sodium chloride (1.00 g), acidified with phosphoric acid (85%) and spiked with an o-cresol internal standard. All reagent concentrations and incubation conditions were applied as described in the previous study by Oceľová et al..

[4] = set-up: method as in earlier work; settings: weak acid; cited from earlier work
[5] = cited from earlier work
[6] = thymol 250 mg/kg feed, 56 d of age
[7] = powder form, after thymol withdrawal
[8] = same concentration of thymol, powder non-pelleted form

**Q.** For `Cc1ccc(C(C)C)c(O)c1` [thymol, Thymol], which “concentration of thymol in feed” value ([1]; 0 d of thymol application) is on record?
**A.** 246.1 ± 5.8 µg/g DM

**Q.** What about the “concentration of thymol in feed” value ([1]; 7 d of thymol application) of the same molecule?
**A.** 197.8 ± 8.3 µg/g DM

**Q.** What about the “concentration of thymol in feed” value ([1]; 14 d of thymol application) of the same molecule?
**A.** 221.9 ± 5.1 µg/g DM

**Q.** And the live weight ([2]; 63 d of age (7 d after thymol withdrawal))?
**A.** 2525 ± 63.2 g

**Q.** What about the “average weight gain per rabbit” value ([2]; 63 d of age (after withdrawal)) of the same molecule?
**A.** 40.24 ± 2.94 g/day

**Q.** And the conversion ratio ([2]; 63 d of age (after withdrawal))?
**A.** 4.24 ± 0.29

**Q.** And the “average weight gain per rabbit” value [2, 6]?
**A.** 36.25 ± 1.48 g/day

**Q.** And the conversion ratio [2, 6]?
**A.** 4.44 ± 0.25

**Q.** And the live weight ([2]; thymol 250 mg/kg feed, 56 d of age (21 d with thymol))?
**A.** 2497 ± 46.9 g

**Q.** And the growth performance ([2]; thymol addition 250 mg/kg feed vs control)?
**A.** not influenced

**Q.** What about the thymol in muscle ([3]; after thymol withdrawal (7 d)) of the same molecule?
**A.** below LOQ

**Q.** What about the thymol in plasma ([3]; after thymol withdrawal (7 d)) of the same molecule?
**A.** below LOQ

**Q.** What about the thymol in spleen ([3]; after thymol withdrawal (7 d)) of the same molecule?
**A.** below LOQ

**Q.** What about the “Spearman correlation (rs) of thymol concentration, DW and kidney” value ([3]; both, rabbit, in vivo) of the same molecule?
**A.** 0.9833

**Q.** What about the “Spearman correlation (rs) of thymol concentration, DW and muscle” value ([3]; both, rabbit, in vivo) of the same molecule?
**A.** 0.8167

**Q.** And the “Spearman correlation (rs) of thymol concentration, JW and muscle” value ([3]; both, rabbit, in vivo)?
**A.** 0.8500

**Q.** What about the “Spearman correlation (rs) of thymol concentration, plasma and kidney” value ([3]; both, rabbit, in vivo) of the same molecule?
**A.** 0.9167

**Q.** What about the “Spearman correlation (rs) of thymol concentration, plasma and muscle” value ([3]; both, rabbit, in vivo) of the same molecule?
**A.** 0.8667

**Q.** What about the “thymol concentration in DW, times higher than in JW” value ([3]; both, rabbit, in vivo) of the same molecule?
**A.** 1.1 times

**Q.** And the “thymol concentration in DW, times higher than in caecum” value ([3]; both, rabbit, in vivo)?
**A.** 1.9 times

**Q.** And the “thymol concentration in DW, times higher than in colon” value ([3]; both, rabbit, in vivo)?
**A.** 1.3 times

**Q.** And the concentration at 21 d ([3]; both, rabbit, in vivo, 250 mg/kg)?
**A.** 213 ng/mL and 753 ng/g

**Q.** And the “Spearman correlation (rs) of thymol concentration, plasma and DW” value ([3]; both, rabbit, in vivo, 21 d)?
**A.** 0.9333

**Q.** And the “thymol concentration in DW, times higher than in JW” value ([3]; both, rabbit, in vivo, 21 d)?
**A.** 1.4 times

**Q.** And the “thymol concentration in DW, times higher than in caecum” value ([3]; both, rabbit, in vivo, 21 d)?
**A.** 1.7 times

**Q.** And the “thymol concentration in DW, times higher than in colon” value ([3]; both, rabbit, in vivo, 21 d)?
**A.** 1.3 times

**Q.** What about the “thymol in all tissues (plasma, liver, kidney, spleen, fat, muscle) and entire intestinal tract” value ([3]; rabbit, in vivo) of the same molecule?
**A.** above LOQ

**Q.** And the “dissociation constant pKA” value [4]?
**A.** 10.62

**Q.** And the “thymol in all intestinal segments and organs” value [5, 7]?
**A.** below the detection limit

**Q.** And the thymol in spleen [5, 7]?
**A.** not detected

**Q.** And the “thymol in muscle and fat tissues” value ([5]; powder form, during application)?
**A.** below the detection limit

**Q.** And the “thymol concentration in DW, times lower than in caecum” value [5, 8]?
**A.** 3.3 times

**Q.** What about the “thymol concentration in DW, times lower than in colon” value [5, 8] of the same molecule?
**A.** 2.5 times

Reference: paper PMC12649353, “Bioavailability of Thymol Incorporated into Gastro-Resistant Self-Emulsifying Pellets in Rabbits” (Animals : an Open Access Journal from MDPI, 2025)
